Among the targets are BUB1 (human) (UniProt O43683); WNK1 (human) (UniProt Q9H4A3); NEK10 (human) (UniProt Q6ZWH5).
Holding throughout (assay): KINOMEscan competition binding
What all share (conditions): compound 10.0 µM

For experiment [1], the system named is ALK (human), Q9UM73 [C1156Y].
Experiment [2] concerns ALK (human), Q9UM73 [L1196M].
Chain of ALK (human), Q9UM73 [L1196M] (Q9UM73 whole entry L1196M, looked up): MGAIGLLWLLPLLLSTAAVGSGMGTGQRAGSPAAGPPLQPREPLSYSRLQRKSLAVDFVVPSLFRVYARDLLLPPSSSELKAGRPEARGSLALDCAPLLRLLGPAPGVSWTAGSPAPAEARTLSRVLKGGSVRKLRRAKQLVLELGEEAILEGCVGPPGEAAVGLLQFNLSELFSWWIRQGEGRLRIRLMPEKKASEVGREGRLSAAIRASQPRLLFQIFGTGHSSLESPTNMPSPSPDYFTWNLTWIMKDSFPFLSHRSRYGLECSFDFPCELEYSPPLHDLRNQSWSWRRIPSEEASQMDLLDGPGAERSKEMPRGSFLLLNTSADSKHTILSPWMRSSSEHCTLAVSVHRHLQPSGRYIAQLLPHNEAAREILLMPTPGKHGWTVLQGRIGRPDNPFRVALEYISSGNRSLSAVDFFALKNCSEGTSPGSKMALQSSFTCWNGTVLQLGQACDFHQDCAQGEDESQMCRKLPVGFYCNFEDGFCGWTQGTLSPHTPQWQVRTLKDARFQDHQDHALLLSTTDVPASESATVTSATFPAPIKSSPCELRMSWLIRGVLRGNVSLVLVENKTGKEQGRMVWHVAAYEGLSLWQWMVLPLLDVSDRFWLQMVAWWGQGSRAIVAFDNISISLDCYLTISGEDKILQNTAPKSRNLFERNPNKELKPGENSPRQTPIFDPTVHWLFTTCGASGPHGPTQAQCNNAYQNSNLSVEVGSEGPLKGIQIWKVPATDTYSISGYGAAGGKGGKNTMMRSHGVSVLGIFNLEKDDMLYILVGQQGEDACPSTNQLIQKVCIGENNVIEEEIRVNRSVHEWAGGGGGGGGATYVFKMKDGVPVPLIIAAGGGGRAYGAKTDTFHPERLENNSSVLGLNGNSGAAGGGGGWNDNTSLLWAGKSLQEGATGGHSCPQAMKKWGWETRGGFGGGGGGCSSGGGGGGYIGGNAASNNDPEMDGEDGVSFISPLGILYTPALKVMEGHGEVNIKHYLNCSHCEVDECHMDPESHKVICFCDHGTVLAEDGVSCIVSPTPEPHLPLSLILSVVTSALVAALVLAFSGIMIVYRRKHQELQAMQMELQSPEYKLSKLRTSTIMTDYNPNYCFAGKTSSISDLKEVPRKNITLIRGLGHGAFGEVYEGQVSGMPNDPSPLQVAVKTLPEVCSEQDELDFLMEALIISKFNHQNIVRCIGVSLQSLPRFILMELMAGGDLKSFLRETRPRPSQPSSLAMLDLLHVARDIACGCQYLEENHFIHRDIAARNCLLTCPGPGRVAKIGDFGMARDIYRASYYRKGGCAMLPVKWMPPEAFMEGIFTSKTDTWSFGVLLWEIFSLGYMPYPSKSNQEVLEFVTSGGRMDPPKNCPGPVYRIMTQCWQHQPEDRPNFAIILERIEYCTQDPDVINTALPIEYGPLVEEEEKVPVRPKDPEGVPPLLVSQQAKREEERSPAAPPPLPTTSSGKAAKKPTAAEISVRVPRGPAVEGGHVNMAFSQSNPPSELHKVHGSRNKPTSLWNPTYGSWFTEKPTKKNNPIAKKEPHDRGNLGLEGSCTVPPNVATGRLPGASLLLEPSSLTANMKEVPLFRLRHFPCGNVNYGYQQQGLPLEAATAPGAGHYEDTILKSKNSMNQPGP

Chain of BUB1 (human) (O43683 whole entry, looked up): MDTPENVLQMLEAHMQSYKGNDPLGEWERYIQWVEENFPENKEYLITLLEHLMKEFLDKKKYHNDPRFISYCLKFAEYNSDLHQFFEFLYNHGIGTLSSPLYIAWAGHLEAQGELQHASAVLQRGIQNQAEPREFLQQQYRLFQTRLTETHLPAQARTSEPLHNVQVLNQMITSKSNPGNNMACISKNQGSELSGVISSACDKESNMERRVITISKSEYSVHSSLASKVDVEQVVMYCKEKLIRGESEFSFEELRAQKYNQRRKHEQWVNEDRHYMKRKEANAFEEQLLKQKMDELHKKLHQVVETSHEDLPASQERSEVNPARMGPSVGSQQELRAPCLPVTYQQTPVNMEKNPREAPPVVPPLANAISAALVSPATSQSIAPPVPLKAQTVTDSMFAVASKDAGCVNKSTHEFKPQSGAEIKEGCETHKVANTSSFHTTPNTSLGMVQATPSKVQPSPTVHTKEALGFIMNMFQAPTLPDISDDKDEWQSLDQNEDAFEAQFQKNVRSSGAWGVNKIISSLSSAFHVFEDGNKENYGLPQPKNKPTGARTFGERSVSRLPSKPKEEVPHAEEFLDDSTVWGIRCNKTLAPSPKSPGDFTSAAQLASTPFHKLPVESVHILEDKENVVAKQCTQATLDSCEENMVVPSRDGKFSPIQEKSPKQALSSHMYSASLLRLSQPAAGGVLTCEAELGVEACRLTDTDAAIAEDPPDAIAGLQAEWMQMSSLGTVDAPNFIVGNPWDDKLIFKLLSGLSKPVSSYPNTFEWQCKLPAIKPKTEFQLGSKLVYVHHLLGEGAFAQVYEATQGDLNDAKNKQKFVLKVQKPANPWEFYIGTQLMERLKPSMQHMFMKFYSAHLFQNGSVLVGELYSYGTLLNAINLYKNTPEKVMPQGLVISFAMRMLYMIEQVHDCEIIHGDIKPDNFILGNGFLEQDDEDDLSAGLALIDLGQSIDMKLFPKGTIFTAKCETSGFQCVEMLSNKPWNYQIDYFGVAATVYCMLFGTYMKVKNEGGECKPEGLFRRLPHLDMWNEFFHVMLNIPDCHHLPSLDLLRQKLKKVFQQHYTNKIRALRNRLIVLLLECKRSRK
Chain of WNK1 (human) (Q9H4A3 whole entry, looked up): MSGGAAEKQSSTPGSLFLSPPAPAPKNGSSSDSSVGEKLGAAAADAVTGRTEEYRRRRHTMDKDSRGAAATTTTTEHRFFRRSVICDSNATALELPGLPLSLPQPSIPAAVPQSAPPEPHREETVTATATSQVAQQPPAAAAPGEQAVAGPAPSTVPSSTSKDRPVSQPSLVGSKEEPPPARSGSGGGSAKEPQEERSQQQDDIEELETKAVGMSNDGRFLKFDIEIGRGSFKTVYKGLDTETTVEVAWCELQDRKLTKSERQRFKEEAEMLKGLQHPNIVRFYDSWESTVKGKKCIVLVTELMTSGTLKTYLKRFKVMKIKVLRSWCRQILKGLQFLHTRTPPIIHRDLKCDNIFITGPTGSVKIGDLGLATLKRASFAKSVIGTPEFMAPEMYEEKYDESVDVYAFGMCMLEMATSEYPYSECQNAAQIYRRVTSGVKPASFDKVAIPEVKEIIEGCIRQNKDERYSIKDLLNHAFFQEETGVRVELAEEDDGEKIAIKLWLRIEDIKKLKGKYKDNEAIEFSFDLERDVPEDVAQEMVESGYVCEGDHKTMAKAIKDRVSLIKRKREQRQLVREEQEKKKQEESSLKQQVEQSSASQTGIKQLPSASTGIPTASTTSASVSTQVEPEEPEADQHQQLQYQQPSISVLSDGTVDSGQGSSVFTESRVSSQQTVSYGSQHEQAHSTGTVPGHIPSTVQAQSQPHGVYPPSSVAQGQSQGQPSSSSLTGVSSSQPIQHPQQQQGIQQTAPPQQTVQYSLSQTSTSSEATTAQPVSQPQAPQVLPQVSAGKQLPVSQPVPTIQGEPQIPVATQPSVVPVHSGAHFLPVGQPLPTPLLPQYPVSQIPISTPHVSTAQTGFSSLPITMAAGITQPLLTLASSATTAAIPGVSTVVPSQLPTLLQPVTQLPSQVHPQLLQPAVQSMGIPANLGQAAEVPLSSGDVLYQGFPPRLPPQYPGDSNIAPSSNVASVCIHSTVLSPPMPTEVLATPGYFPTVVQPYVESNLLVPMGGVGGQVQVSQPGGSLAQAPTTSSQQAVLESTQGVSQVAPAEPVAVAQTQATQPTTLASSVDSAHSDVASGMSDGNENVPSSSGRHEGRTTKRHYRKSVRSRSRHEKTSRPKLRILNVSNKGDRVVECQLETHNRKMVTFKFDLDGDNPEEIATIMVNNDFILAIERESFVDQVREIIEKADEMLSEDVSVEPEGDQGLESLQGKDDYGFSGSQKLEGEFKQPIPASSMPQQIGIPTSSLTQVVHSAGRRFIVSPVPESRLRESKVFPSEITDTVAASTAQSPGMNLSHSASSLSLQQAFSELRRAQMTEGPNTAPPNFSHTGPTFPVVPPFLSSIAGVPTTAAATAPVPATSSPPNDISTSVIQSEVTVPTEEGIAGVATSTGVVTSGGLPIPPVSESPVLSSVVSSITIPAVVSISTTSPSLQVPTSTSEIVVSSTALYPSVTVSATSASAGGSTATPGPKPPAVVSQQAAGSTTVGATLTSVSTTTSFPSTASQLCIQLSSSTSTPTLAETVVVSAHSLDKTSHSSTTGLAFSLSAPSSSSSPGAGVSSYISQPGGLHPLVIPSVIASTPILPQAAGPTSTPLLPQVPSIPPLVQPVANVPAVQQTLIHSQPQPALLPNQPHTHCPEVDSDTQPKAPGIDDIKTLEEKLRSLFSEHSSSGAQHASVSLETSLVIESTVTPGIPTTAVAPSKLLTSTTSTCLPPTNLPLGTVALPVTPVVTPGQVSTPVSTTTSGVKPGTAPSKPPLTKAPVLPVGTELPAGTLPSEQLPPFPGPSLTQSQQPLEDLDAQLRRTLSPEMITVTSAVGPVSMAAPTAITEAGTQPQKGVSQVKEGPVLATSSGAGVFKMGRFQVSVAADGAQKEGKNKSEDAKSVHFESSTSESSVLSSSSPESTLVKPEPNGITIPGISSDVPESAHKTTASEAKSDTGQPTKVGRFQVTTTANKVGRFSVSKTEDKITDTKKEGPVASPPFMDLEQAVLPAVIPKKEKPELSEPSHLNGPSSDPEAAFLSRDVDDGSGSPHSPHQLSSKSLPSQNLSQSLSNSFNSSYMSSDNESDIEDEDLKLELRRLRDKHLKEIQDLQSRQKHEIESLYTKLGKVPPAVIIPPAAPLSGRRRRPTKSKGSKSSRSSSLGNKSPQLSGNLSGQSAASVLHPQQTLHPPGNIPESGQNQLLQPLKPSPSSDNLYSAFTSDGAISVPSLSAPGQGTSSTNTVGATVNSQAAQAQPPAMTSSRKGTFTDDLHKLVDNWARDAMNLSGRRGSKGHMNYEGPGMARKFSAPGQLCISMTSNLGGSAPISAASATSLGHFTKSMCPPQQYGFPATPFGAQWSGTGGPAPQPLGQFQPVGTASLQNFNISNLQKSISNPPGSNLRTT
Chain of ALK (human), Q9UM73 [C1156Y] (Q9UM73 whole entry C1156Y, looked up): as the sequence (Q9UM73 whole entry L1196M, looked up) above, with C1156Y, M1196L counted along it

Consider `N#CCNC(=O)c1ccc(-c2ccnc(Nc3ccc(N4CCOCC4)cc3)n2)cc1`, for which the kinase still bound, per cent of control at BUB1 (human) worked out at 3.5%; on WNK1 (human) it was 75%.
On to `O=C1NC(=O)/C(=C/c2ccc3nccc(-c4ccncc4)c3c2)S1`, for which the kinase still bound, per cent of control amounted to 42% in experiment [1]; 45% in experiment [2]; 12% on BUB1 (human); 0% on NEK10 (human); 57% at WNK1 (human).
